SMILES strings stand for the structures.

The target of one series is T1, recombinant human PDE5 (Homo sapiens, UniProt O76074).
T1 construct: host or cells: Saccharomyces cerevisiae strain BJ2-54 (ATCC 74465), described as an exemplary method
Put plainly: Inhibitory effect on cGMP-PDE (PDE5 inhibition, one-step assay). Format: biochemical. The note with it: in vitro test; human recombinant PDE5, 0.15 μM 8-[H3]-cGMP, 30 minutes incubation; read-out: IC50 values versus PDE5. On the procedure: The compounds of structural formula (I) were tested for an ability to inhibit PDE5. The ability of a compound to inhibit PDE5 activity is related to the IC50 value for the compound, i.e., the concentration of inhibitor required for 50% inhibition of enzyme activity. The IC50 value for compounds of structural formula (I) were determined using recombinant human PDE5.
The production of recombinant human PDEs and the IC50 determinations can be accomplished by well-known methods in the art. Exemplary methods are described as follows:
Phosphodiesterase activity of the preparations was determined as follows. PDE assays utilizing a charcoal separation technique were performed essentially as described in Loughney et al. (1996). […] The [32P]5′-AMP or [32P]5′-GMP then was quantitatively converted to free [32P] phosphate and unlabeled adenosine or guanosine by the action of snake venom 5′-nucleotidase. […] PDE enzyme was present in quantities that yield <30% total hydrolysis of substrate (linear assay conditions). […] After centrifugation (750×g for 3 minutes) to sediment the charcoal, a sample of the supernatant was taken for radioactivity determination in a scintillation counter and the PDE activity was calculated.
cGMP-PDE activity of compounds of the present invention was measured using a one-step assay adapted from Wells et al., Biochim. […]

Broadly, the IC50 is the concentration that inhibits the measured activity by half. Usually melting point stands for the temperature, or range, at which the solid turns liquid. Regarding `O=C1[C@H]2Cc3c([nH]c4ccccc34)[C@@H](c3ccc4c(c3)OCO4)N2C(=O)C2CNCCN12` (mixture of isomers) [Example 1, (5aR,12R)-12-Benzo(1,3)dioxol-5-yl-5,5a,8,9,10,10a,12,13-octahydro-7H-6a,9,11a,13-tetraza-indeno[1,2-b]anthracene-6,11-dione], the melting point is 226 to 237 °C. For the same compound, the IC50 at recombinant human PDE5 is 1.7 nM.

The compound `COc1ccc(CC(=O)N2CCN3C(=O)[C@H]4Cc5c([nH]c6ccccc56)[C@@H](c5ccc6c(c5)OCO6)N4C(=O)C3C2)cc1OC` (stereo partly drawn) [Example 3, (5aR,12R)-12-Benzo(1,3)dioxol-5-yl-9-[2-(3,4-dimethoxyphenyl)ethanoyl]-5,5a,8,9, 10, 10a,12,13-octahydro-7H-6a,9,11a,13-tetraaza-indeno[1,2-b]anthracene-6,11-dione] yielded a melting point of 284 to 289 °C. Besides, the IC50 at recombinant human PDE5 was 3.9 nM.

These data come from US6825197B2, “Cyclic GMP-specific phosphodiesterase inhibitors” (Lilly ICOS LLC, priority 2000, dated 2004).
